Measurements published in patent EP0362382A1, “METHOD OF STERILIZING PLANT POLLEN” (VSESOJUZNY NAUCHNO-ISSLEDOVATELSKY INST. SELSKOKHOZYAISTV. …, priority 1988, dated 1989).

How the values were obtained:
Winterweizen = test: Field test of gametocidal activity (sterilisation of anthers), winter wheat; type: in vivo; details: V. Periode der Organogenese, 2%ige wäßrige Emulsion
Description: (§1) Die gametozide Aktivitat der erfindungsgemäßen Sterilisationsmittel war im Feldversuch in verschiedenen bodenklimatischen Zonen mit Teilstücken von 10 m^2 Größe in drei- bis viermaliger Wiederholung festgestellt. Jedes Sterilisationsmittel wurde mindenstens 5 Jahre lang geprüft.
(§2) Die Entwicklung der Perioden der Organogenese wird zytologisch überwacht. Die Behandlung von Pflanzen mit dem Sterilisationsmittel erfolgt am Anfang der fünften Periode der Organogenese nach Kupermann.
(§3) Mit dem Ährenschieben verwirklicht man die Isolierung von Hauptähren und anderen Stockwerken in Pergamentbeuteln. Bei Weizen und Tritikale werden Einzelisolatoren benutzt. Bei Roggen schließt man je Ähre 5 bis 7 verschiedene nebeneinander befindliche Pflanzen unter einen gemeinsamen Isolator ein. Bei Hierse wird jede Rispe getrennt isoliert. Der Sterilitätsprozentsatz (X) für Weizen, Roggen, Tritikale und Hirse wird nach der Formel [formula] ermittelt.
(§4) Die Kornzahl in nicht isolierten Ähren von Kontrollpflanzen wird bedingt für 100 % Ansetzen bei freier Bestäubung angenommen.
(§5) Um zuverlässige Angaben zu erhalten, verwendet man 20 bis 25 Isolatoren jeder Wiederholung für Weizen und Tritikale, 10 .bis 15 Isolatoren jeder Wiederholung für Roggen und Hirse.
Pflanzen des Winterweizens Sorte Mironowskaja 808 werden in der V. Periode der Organogenese durch Zerstäubung der 2%igen wäßrigen Emulsion der δ, δ' -Thiodivaleriansäure mit Hilfe einer Rückenspritze behandelt. Als Emulgiermittel wird 0,1 Masse% Kalziumalkylbenzalsulfonat mit 12 bis 14 Kohlenstoffatomen hinzugefügt. Als Adjuvans führt man in die Emulsion 0,01 Masse% Dimethylsulfoxid ein. Der Verbrauch an Präparat beträgt 20 kg/ha. Als Kontrolle dienen Pflanzen, behandelt mit einem Verdünner ohne Sterilisationsmittel. Die Ergebnisse sind in der Tabelle 1 angegeben. […] Periode der Organogenese erhalten.
Der Prozeß erfolgt analog zu dem im Beispiel 1 bescnriebenen. Als Sterilisationsmittel benutzt man 2%ige wäßrige Emulsion von Natriumsalz der δ, δ'-Thiodivaleriansäure, δ, δ' -Sulfonyldivaleriansäure, Natriumsalz der δ, δ' -Sulfonyldivaleriansäure, Kaliumsalz der δ, δ'--Sulfonyldivaleriansäure, Bis(di-n-butyläther) der δ, δ'--Thiodivaleriansäure, 4-Karboxybutyldezylsulfid bzw.
Pflanzen des Winterweizens Sorte Korall werden in der V. Periode der Organogenese (nach Kupermann) mit 2%iger wäßriger Emulsion von Bis(2-äthylhexyläther) der δ, δ' --Thiodivaleriansäure, 4-Karboxybutyldezylsulfid bzw. Bis(di--n-butyläther) der δ, δ' -Thiodivalerianqäure behandelt. Die Emulsion enthält 0,1 Masse% Kalziumalkylbenzolsulfonat mit 12 bis 14 Kohlenstoffatomen und 0,01 Masse% Dodezylsulfat. Der Verbrauch an Präparat beträgt 12 kg/ha. Als Kontrolle dienen Pflanzen, behandelt mit einem Verdünner ohne Sterilisationsmittel. Die Prüfergebnisse sind in der Tabelle 2 angegeben.
Pflanzen des Winterweizens Gordeiforme 12303 werden in der V. Periode der Organogenese (nach Kupermann) mit 2%iger wäßriger Emulsion von 4-Karboxybutyldezylsulfid, Bis(2-äthylhexyläther) der δ, δ' -Thiodivaleriansäure, δ, δ' -Sulfonyldivaleriansäure behandelt. Die Emulsion enthält als Emulgiermittel 0,1 Masse% Kalziumalkylbenzolsulfonat mit 12 bis 14 Kohlenstoffatomen und 0,01 Masse% Dimethylformamid. Der Verbrauch an Präparat beträgt 16 kg/ha. Als Kontrolle dienen Pflanzen, behandelt mit einem Verdünner ohne Sterilisationsmittel.

diploidem Roggen = test: Field test of gametocidal activity (sterilisation of anthers), diploid rye; type: in vivo; details: 1%ige wäßrige Emulsion
Description: as §1, §2, §3, §4, §5
Pflanzen von diploidem Roggen Sorte Wosohod 2 werden in der V. Periode der Organogenese (nach Kupermann) mit 1%iger wäßriger Emulsion von Bis(di-n-butyläther) der δ, δ' -Thiodivaleriansäure, 4-Krboxybutyldezylsulfid, Natriumsalz der δ, δ' -Thiodivaleriansäure, Bis(2-äthylhexyläther) der δ, δ' -Thiodivaleriansäure, δ, δ' -Sulfonyldivaleriansäure, Natriumsalz der δ, δ'-Sulfonyldivaleriansäure, Kaliumsalz der δ, δ' -Sulfonyldivaleriansäure behandelt. Die Emulsion enthält 0,1 Masse% […] mit 12 bis 14 Kohlenstoffatomen und 0,01 Masse% Tetrahydrofuran. Der Verbrauch an Präparat beträgt 6 kg/ha. Als Kontrolle dienen Pflanzen, behandelt mit einem Verdünner ohne Sterilisationsmittel.
Pflanzen von diploidem Roggen Sorte Gibrid 1861/79 werden in der V. und VI. Periode der Organogenese (nach Kupermann) mit 1%iger wäßriger Emulsion von Bis(di-n-butyläther) der δ, δ' -Thiodivaleriansäure, δ, δ' -Thiodivaleriansäure, Natriumsalz der δ δ' -Thiodivaleriansäure, 4-Karboxybutyldezylsulfid, δ , δ' -Sulfonyldivaleriansäure, Kaliumsalz der δ, δ' -Sulfonyldivaleriansäuleriansäure, Kaliumalz der δ' -Sulfonyldivaleriansäure, Bis(2-äthylhexyläther) der δ, δ' -Thiodivaleriansäure behandelt. Die Emulsion enthält 0,1 Masse% Kalziumalkylbenzolsulfonat mit 12 bis 14 Kohlenstoffatomen und 0,01 Masse% Dimethylformamid. Der Verbrauch an Präparat beträgt 8 kg/ha. Als Kontrolle dienen Pflanzen, behandelt mit einem Verdünner ohne Sterilisationsmittel. Die Prüfergebnisse sind in der Tabelle 10 angegeben.

[1] = Sorte Mironowskaja 808, 20 kg/ha
[2] = Sorte Wosohod 2, V. Periode der Organogenese, 6 kg/ha
[3] = Sorte Gibrid 1861/79, V. und VI. Periode der Organogenese, 8 kg/ha

O=C([O-])CCCCS(=O)(=O)CCCCC(=O)[O-].[Na+].[Na+] [Beispiel 4, Natriumsalz der δ, δ' -Sulfonyldivaleriansäure]
Anzahl von Körnern der Ähre bei freier Bestäubung (Winterweizen; [1]): 34,1 | Anzahl von Körnern der Ähre im Isolator (Winterweizen; [1]): 0,1 | Prozentsatz der Sterilität (Winterweizen; [1]): 99,8% | Prozentsatz des Ansetzens von Körnern bei freier Bestäubung (Winterweizen; [1]): 82,8%

O=C([O-])CCCCS(=O)(=O)CCCCC(=O)[O-].[K+].[K+] [Beispiel 5, Kaliumsalz der δ, δ'--Sulfonyldivaleriansäure]
Anzahl von Körnern der Ähre bei freier Bestäubung (Winterweizen; [1]): 40,7 | Anzahl von Körnern der Ähre im Isolator (Winterweizen; [1]): 0,1 | Prozentsatz der Sterilität (Winterweizen; [1]): 99,8% | Prozentsatz des Ansetzens von Körnern bei freier Bestäubung (Winterweizen; [1]): 98,8%

CCCCCCCCCCSCCCCC(=O)O [Beispiel 7, 4-Karboxybutyldezylsulfid]
Anzahl von Körnern der Ähre bei freier Bestäubung (Winterweizen; [1]): 35,6 | Anzahl von Körnern der Ähre im Isolator (Winterweizen; [1]): 0,0 | Prozentsatz der Sterilität (Winterweizen; [1]): 100,0% | Prozentsatz des Ansetzens von Körnern bei freier Bestäubung (Winterweizen; [1]): 86,4%

CCCCC(CC)COC(=O)CCCCSCCCCC(=O)OCC(CC)CCCC (centres unmarked) [Beispiel 8]
Anzahl von Körnern der Ähre bei freier Bestäubung (Winterweizen; [1]): 36,1 | Anzahl von Körnern der Ähre im Isolator (Winterweizen; [1]): 0,0 | Prozentsatz der Sterilität (Winterweizen; [1]): 100,0% | Prozentsatz des Ansetzens von Körnern bei freier Bestäubung (Winterweizen; [1]): 87,6%

CCCCC(CC)COC(=O)CCCCSCCCCC(=O)OCC(CC)CCCC (centres unmarked) [Beispiel 9, Bis(2-äthylhexyläther) der δ, δ' --Thiodivaleriansäure]
Anzahl von Körnern der Ähre bei freier Bestäubung (Winterweizen; Sorte Korall, 12 kg/ha): 30,8 | Anzahl von Körnern der Ähre im Isolator (Winterweizen; Sorte Korall, 12 kg/ha): 0,0 | Prozentsatz der Sterilität (Winterweizen; Sorte Korall, 12 kg/ha): 100,0% | Prozentsatz des Ansetzens von Körnern bei freier Bestäubung (Winterweizen; Sorte Korall, 12 kg/ha): 95,1%

CCCCCCCCCCSCCCCC(=O)O [Beispiel 10, 4-Karboxybutyldezylsulfid]
Anzahl von Körnern der Ähre bei freier Bestäubung (Winterweizen; Sorte Korall, 12 kg/ha): 29,1 | Anzahl von Körnern der Ähre im Isolator (Winterweizen; Sorte Korall, 12 kg/ha): 0,1 | Prozentsatz der Sterilität (Winterweizen; Sorte Korall, 12 kg/ha): 99,5% | Prozentsatz des Ansetzens von Körnern bei freier Bestäubung (Winterweizen; Sorte Korall, 12 kg/ha): 89,8%

CCCCCCCCCCSCCCCC(=O)O [Beispiel 12, 4-Karboxybutyldezylsulfid]
Anzahl von Körnern der Ähre bei freier Bestäubung (Winterweizen; Gordeiforme 12303, 16 kg/ha): 21,6 | Anzahl von Körnern der Ähre im Isolator (Winterweizen; Gordeiforme 12303, 16 kg/ha): 0,0 | Prozentsatz der Sterilität (Winterweizen; Gordeiforme 12303, 16 kg/ha): 100,0% | Prozentsatz des Ansetzens von Körnern bei freier Bestäubung (Winterweizen; Gordeiforme 12303, 16 kg/ha): 74,2%

CCCCC(CC)COC(=O)CCCCSCCCCC(=O)OCC(CC)CCCC (centres unmarked) [Beispiel 13, Bis(2-äthylhexyläther) der δ, δ' -Thiodivaleriansäure]
Anzahl von Körnern der Ähre bei freier Bestäubung (Winterweizen; Gordeiforme 12303, 16 kg/ha): 25,3 | Anzahl von Körnern der Ähre im Isolator (Winterweizen; Gordeiforme 12303, 16 kg/ha): 0,0 | Prozentsatz der Sterilität (Winterweizen; Gordeiforme 12303, 16 kg/ha): 100,0% | Prozentsatz des Ansetzens von Körnern bei freier Bestäubung (Winterweizen; Gordeiforme 12303, 16 kg/ha): 86,9%

O=C(O)CCCCS(=O)(=O)CCCCC(=O)O [Beispiel 14, δ, δ' -Sulfonyldivaleriansäure]
Anzahl von Körnern der Ähre bei freier Bestäubung (Winterweizen; Gordeiforme 12303, 16 kg/ha): 23,6 | Anzahl von Körnern der Ähre im Isolator (Winterweizen; Gordeiforme 12303, 16 kg/ha): 0,1 | Prozentsatz der Sterilität (Winterweizen; Gordeiforme 12303, 16 kg/ha): 99,7% | Prozentsatz des Ansetzens von Körnern bei freier Bestäubung (Winterweizen; Gordeiforme 12303, 16 kg/ha): 81,1%

CCCCOC(=O)CCCCSCCCCC(=O)OCCCC [Beispiel 37, Bis(di-n-butyläther) der δ, δ' -Thiodivaleriansäure]
Anzahl von Körnern der Ähre bei freier Bestäubung (diploidem Roggen; [2]): 50,9 | Anzahl von Körnern der Ähre im Isolator (diploidem Roggen; [2]): 0,0 | Prozentsatz der Sterilität (diploidem Roggen; [2]): 100,0% | Prozentsatz des Ansetzens von Körnern bei freier Bestäubung (diploidem Roggen; [2]): 93,2%

CCCCCCCCCCSCCCCC(=O)O [Beispiel 38, 4-Krboxybutyldezylsulfid]
Anzahl von Körnern der Ähre bei freier Bestäubung (diploidem Roggen; [2]): 50,5 | Anzahl von Körnern der Ähre im Isolator (diploidem Roggen; [2]): 0,0 | Prozentsatz der Sterilität (diploidem Roggen; [2]): 100,0% | Prozentsatz des Ansetzens von Körnern bei freier Bestäubung (diploidem Roggen; [2]): 92,5%

O=C(O)CCCCSCCCCC(=O)O [Beispiel 39, Natriumsalz der δ, δ' -Thiodivaleriansäure]
Anzahl von Körnern der Ähre bei freier Bestäubung (diploidem Roggen; [2]): 50,5 | Anzahl von Körnern der Ähre im Isolator (diploidem Roggen; [2]): 0,1 | Prozentsatz der Sterilität (diploidem Roggen; [2]): 99,8% | Prozentsatz des Ansetzens von Körnern bei freier Bestäubung (diploidem Roggen; [2]): 92,5%

CCCCC(CC)COC(=O)CCCCSCCCCC(=O)OCC(CC)CCCC (centres unmarked) [Beispiel 40, Bis(2-äthylhexyläther) der δ, δ' -Thiodivaleriansäure]
Anzahl von Körnern der Ähre bei freier Bestäubung (diploidem Roggen; [2]): 52,9 | Anzahl von Körnern der Ähre im Isolator (diploidem Roggen; [2]): 0,0 | Prozentsatz der Sterilität (diploidem Roggen; [2]): 100,0% | Prozentsatz des Ansetzens von Körnern bei freier Bestäubung (diploidem Roggen; [2]): 96,9%

O=C(O)CCCCS(=O)(=O)CCCCC(=O)O [Beispiel 41, δ, δ' -Sulfonyldivaleriansäure]
Anzahl von Körnern der Ähre bei freier Bestäubung (diploidem Roggen; [2]): 48,4 | Anzahl von Körnern der Ähre im Isolator (diploidem Roggen; [2]): 0,1 | Prozentsatz der Sterilität (diploidem Roggen; [2]): 99,8% | Prozentsatz des Ansetzens von Körnern bei freier Bestäubung (diploidem Roggen; [2]): 88,6%

O=C(O)CCCCS(=O)(=O)CCCCC(=O)O [Beispiel 42, Natriumsalz der δ, δ'-Sulfonyldivaleriansäure]
Anzahl von Körnern der Ähre bei freier Bestäubung (diploidem Roggen; [2]): 47,4 | Anzahl von Körnern der Ähre im Isolator (diploidem Roggen; [2]): 0,1 | Prozentsatz der Sterilität (diploidem Roggen; [2]): 99,8% | Prozentsatz des Ansetzens von Körnern bei freier Bestäubung (diploidem Roggen; [2]): 86,8%

O=C(O)CCCCS(=O)(=O)CCCCC(=O)O [Beispiel 43, Kaliumsalz der δ, δ' -Sulfonyldivaleriansäure]
Anzahl von Körnern der Ähre bei freier Bestäubung (diploidem Roggen; [2]): 53,8 | Anzahl von Körnern der Ähre im Isolator (diploidem Roggen; [2]): 0,6 | Prozentsatz der Sterilität (diploidem Roggen; [2]): 98,8% | Prozentsatz des Ansetzens von Körnern bei freier Bestäubung (diploidem Roggen; [2]): 98,5%

CCCCOC(=O)CCCCSCCCCC(=O)OCCCC [Beispiel 44, Bis(di-n-butyläther) der δ, δ' -Thiodivaleriansäure]
Anzahl von Körnern der Ähre bei freier Bestäubung (diploidem Roggen; [3]): 60,0 | Anzahl von Körnern der Ähre im Isolator (diploidem Roggen; [3]): 0,0 | Prozentsatz der Sterilität (diploidem Roggen; [3]): 100,0% | Prozentsatz des Ansetzens von Körnern bei freier Bestäubung (diploidem Roggen; [3]): 95,5%

O=C(O)CCCCSCCCCC(=O)O [Beispiel 45, δ, δ' -Thiodivaleriansäure]
Anzahl von Körnern der Ähre bei freier Bestäubung (diploidem Roggen; [3]): 58,6 | Anzahl von Körnern der Ähre im Isolator (diploidem Roggen; [3]): 0,1 | Prozentsatz der Sterilität (diploidem Roggen; [3]): 99,8% | Prozentsatz des Ansetzens von Körnern bei freier Bestäubung (diploidem Roggen; [3]): 93,3%

O=C(O)CCCCSCCCCC(=O)O [Beispiel 46, Natriumsalz der δ δ' -Thiodivaleriansäure]
Anzahl von Körnern der Ähre bei freier Bestäubung (diploidem Roggen; [3]): 57,1 | Anzahl von Körnern der Ähre im Isolator (diploidem Roggen; [3]): 0,1 | Prozentsatz der Sterilität (diploidem Roggen; [3]): 99,8% | Prozentsatz des Ansetzens von Körnern bei freier Bestäubung (diploidem Roggen; [3]): 90,9%

CCCCCCCCCCSCCCCC(=O)O [Beispiel 47, 4-Karboxybutyldezylsulfid]
Anzahl von Körnern der Ähre bei freier Bestäubung (diploidem Roggen; [3]): 52,8 | Anzahl von Körnern der Ähre im Isolator (diploidem Roggen; [3]): 0,0 | Prozentsatz der Sterilität (diploidem Roggen; [3]): 100,0% | Prozentsatz des Ansetzens von Körnern bei freier Bestäubung (diploidem Roggen; [3]): 84,1%

O=C(O)CCCCSCCCCC(=O)O [Beispiel I, δ, δ' -Thiodivaleriansäure]
Anzahl von Körnern der Ähre bei freier Bestäubung (Winterweizen; [1]): 37,0 | Anzahl von Körnern der Ähre im Isolator (Winterweizen; [1]): 0,5 | Prozentsatz der Sterilität (Winterweizen; [1]): 98,8% | Prozentsatz des Ansetzens von Körnern bei freier Bestäubung (Winterweizen; [1]): 89,8%

Bis(di--n-butyläther) der δ, δ' -Thiodivalerianqäure [Beispiel 11]
Anzahl von Körnern der Ähre bei freier Bestäubung (Winterweizen; Sorte Korall, 12 kg/ha): 30,2 | Anzahl von Körnern der Ähre im Isolator (Winterweizen; Sorte Korall, 12 kg/ha): 0,1 | Prozentsatz der Sterilität (Winterweizen; Sorte Korall, 12 kg/ha): 99,5% | Prozentsatz des Ansetzens von Körnern bei freier Bestäubung (Winterweizen; Sorte Korall, 12 kg/ha): 93,2%

Bis(di-n-butyläther) der δ, δ'--Thiodivaleriansäure [Beispiel 6]
Anzahl von Körnern der Ähre bei freier Bestäubung (Winterweizen; [1]): 34,8 | Anzahl von Körnern der Ähre im Isolator (Winterweizen; [1]): 0,0 | Prozentsatz der Sterilität (Winterweizen; [1]): 100,0% | Prozentsatz des Ansetzens von Körnern bei freier Bestäubung (Winterweizen; [1]): 84,5%
